Data on 18 compounds can be found in ChEMBL document CHEMBL1121680, “2,4-Diamino-5-benzylpyrimidines and analogues as antibacterial agents. 5. 3',5'-Dimethoxy-4'-substituted-benzyl analogues of trimethoprim” (J Med Chem, 1981).

Assay [1] addresses T1, Dihydrofolate reductase (Rattus norvegicus) (UniProt Q920D2).
T1 sequence (whole entry): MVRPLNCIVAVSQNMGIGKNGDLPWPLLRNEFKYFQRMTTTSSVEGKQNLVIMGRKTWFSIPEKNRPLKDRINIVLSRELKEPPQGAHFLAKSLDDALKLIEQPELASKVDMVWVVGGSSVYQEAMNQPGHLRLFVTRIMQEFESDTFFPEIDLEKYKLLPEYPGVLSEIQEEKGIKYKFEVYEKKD
Nature of the assay: Compound was tested for inhibitory activity against Dihydrofolate reductase of rat liver at 40000 M.

Assay [2] deals with T1, Dihydrofolate reductase (Rattus norvegicus). Nature of the assay: Compound was tested for inhibitory activity against Dihydrofolate reductase of rat liver at 10000. Conditions: concentration not given here.
The target of assay [3] is T2, Dihydrofolate reductase (Rattus norvegicus, UniProt Q920D2).
T2 sequence (Q920D2 whole entry): T1 sequence (whole entry)
Nature of the assay: Inhibition of rat liver Dihydrofolate reductase. To be noted: read-out: I50.

The target of assay [4] is T1, Dihydrofolate reductase (Rattus norvegicus). The experiment in a line: Compound was tested for inhibitory activity against Dihydrofolate reductase of rat liver at 10000 M.
For assay [5] the target is unchanged. Nature of the assay: Compound was tested for inhibitory activity against Dihydrofolate reductase of rat liver at 1000 µM. To be noted: 1000 M.
For assay [6] the target is unchanged. The experiment in a line: Compound was tested for inhibitory activity against Dihydrofolate reductase of rat liver at 22400 M.
The target is the same in assay [7]. Nature of the assay: Percent inhibition of compound against Dihydrofolate Reductase(DHFR) of rat liver at 40000 M.
The species entered for assay [8] is Mus musculus. Conditions: Serum.
For assay [9], the species on record is Mus musculus. To be noted: Serum. The source holds these as a separate data set.
In assay [10] the test system is Oryctolagus cuniculus. Nature of the assay: Peak serum concentration reached within 1 hr of administration of 5 mg/kg oral dose. The class given is functional, organism-based. Also on record: dose 5 mg/kg.
In assay [11] the target is T1, Dihydrofolate reductase (Rattus norvegicus). The experiment in a line: Percent inhibition of compound against Dihydrofolate Reductase of rat liver at 27400 M.
Assay [12] has the same target. The experiment in a line: Compound was tested for inhibitory activity against Dihydrofolate reductase of rat liver at 2400 M.

The compound `COc1cc(Cc2cnc(N)nc2N)cc(OC)c1OCCCN1CCN(C)CC1` returned an inhibition in assay [1] of 36%.
In turn, `COc1cc(Cc2cnc(N)nc2N)cc(OC)c1OCCCO` yielded an inhibition in [2] of 24%.
`COc1cc(Cc2cnc(N)nc2N)cc(OC)c1OCCN` gave an inhibition in assay [1] of 38%.
`CCOC(=O)COc1c(OC)cc(Cc2cnc(N)nc2N)cc1OC` came in with an inhibition in [1] of 12%.
For `CCc1c(OC)cc(Cc2cnc(N)nc2N)cc1OC`, the IC50 in [3] stood at 200 µM.
Turning to `COc1cc(Cc2cnc(N)nc2N)cc(OC)c1OCCO`, the IC50 in assay [3] was > 400 µM.
On the same count and under the same terms, with `CCCCOc1c(OC)cc(Cc2cnc(N)nc2N)cc1OC` the figure was 580 µM.
As to `COc1cc(Cc2cnc(N)nc2N)cc(OC)c1OCCCN`, the inhibition in [4] was found to be 39%.
Consider `COc1cc(Cc2cnc(N)nc2N)cc(OC)c1Oc1ccc(N)cc1`, for which the inhibition in [5] worked out at 8%.
The compound `COc1cc(Cc2cnc(N)nc2N)cc(OC)c1OCC(=O)O` gave an inhibition in assay [6] of 20%.
In turn, `COc1cc(Cc2cnc(N)nc2N)cc(OC)c1OC(C)C` had an inhibition in assay [7] of 9%.
With `CCCCCOc1c(OC)cc(Cc2cnc(N)nc2N)cc1OC`, the IC50 in assay [3] came to 270 µM.
With `COc1cc(Cc2cnc(N)nc2N)cc(OC)c1OC`, the T1/2 is 2.7 h in assay [8] and 0.76 h in assay [9]. In addition, the Concentration in [10] came out at 2 µg/mL.
For `COc1cc(Cc2cnc(N)nc2N)cc(OC)c1Oc1ccc([N+](=O)[O-])cc1`, the IC50 in assay [3] was determined as 50 µM.
As to `COc1cc(Cc2cnc(N)nc2N)cc(OC)c1OCC(O)CO` (stereo not given), in [11], the inhibition came out at 32%.
On to `COC(=O)CCCCCOc1c(OC)cc(Cc2cnc(N)nc2N)cc1OC`, for which the IC50 in [3] amounted to 1100 µM.
In the case of `COc1cc(Cc2cnc(N)nc2N)cc(OC)c1OCCCCCCN1C(=O)c2ccccc2C1=O`, in assay [12], the inhibition turned out to be 25%.
Regarding `COc1cc(Cc2cnc(N)nc2N)cc(OC)c1OCCCl`, the IC50 in [3] was 600 µM.
